Laboratory results reported in US7220780B2, “Naaladase inhibitors for treating retinal disorders and glaucoma” (Guilford Pharmaceuticals Inc., priority 2000, dated 2007).
Peptide text beside a SMILES is read from it.

Legend:
male Brown Norway rats [1] = test: Experimental rat glaucoma (IOP elevation by hypertonic saline), optic nerve fiber counting; format: in vivo; settings: 10 mg/kg daily i.p.
Procedure: (§1) All experiments complied with the Association for Research in Vision and Ophthalmology Statement for the Use of Animals in Ophthalmic and Vision Research. 82 male Brown Norway rats (Rattus norvegicus), each weighing approximately 250 gm, were treated using procedures approved by the Animal Care Committee of the Johns Hopkins University School of Medicine. The rats were housed with a 12 hour light/12 hour dark cycle and fed ad libitum .
EXPERIMENTAL GLAUCOMA: Unilateral elevation of IOP was produced in 56 rats by microinjection of hypertonic saline into episcleral veins, following procedures described in Morrison, J. et al., IOVS (March 1998) 39:526-531. Beginning on the day of IOP elevation, the rats were treated daily with intraperitoneal injections of either a vehicle (23 rats with 50 mM HEPES-buffered saline) or a NAALADase inhibitor (11 rats with 10 mg/kg of 2-[[(2,3,4,5,6-pentafluorobenzyl)hydroxyphosphinyl]-methyl]pentanedioic acid (“Compound A”) and 22 rats with 10 mg/kg of 2-(3-sulfanylpropyl)pentanedioic acid (“Compound B”)). 11 saline treated rats, 11 Compound A treated rats and 11 Compound B treated rats were sacrificed at 8 weeks, and the remaining rats at 12 weeks, after initial IOP elevation.
(§2) OPTIC NERVE COUNTING: The rats were sacrificed by exsanguination under deep pentobarbital anesthesia. They were perfused through the heart with 2% paraformaldehyde/2% glutaraldehyde in 0.1 M phosphate buffer, pH 7.2, and the eyes with attached optic nerves were removed. A cross-section of the optic nerve from both experimental (glaucoma or transection) and control eyes was removed 1.5 mm posterior to the globe, 1 mm in thickness, and post-fixed in 2% osmium tetroxide in buffer. These were processed into epoxy resin, sectioned at 1 micron and stained with toluidine blue.
(§3) The area of the optic nerve cross-section was measured by outlining its outer border at 10×magnification on an image analysis system (Universal Imaging Corp., Westchester, Pa.) with Synsys digital camera and Metamorph software. Three area measurements were taken and the mean value was determined. To measure the density and fiber diameter distributions, images were captured with a 100× phase contrast objective from 10 different areas of each nerve. These were edited to eliminate non-neural objects and the size of each axon internal to the myelin sheath (its minimum diameter) and the density of axons/square mm were calculated for each image and nerve. The mean density was multiplied by total nerve area to yield fiber number for each nerve. The total fiber number in glaucoma or transection nerves was compared to the normal, fellow eye of each rat to yield a percent loss value. The number of axons counted among the 10 images was an approximately 20% sample of the 80-90,000 axons in normal rat nerves. The person measuring axon number was masked to the protocol conducted on the nerves.

male Brown Norway rats [2] = test: Optic nerve transection in rats, optic nerve fiber counting; format: in vivo, Rattus norvegicus; settings: for FIBER NUMBER ± SEM / PERCENT DIFFERENCE ± SEM: 10 mg/kg daily i.p.; for PERCENT DIFFERENCE ± SEM: transected vs normal eye
Procedure: as §1
OPTIC NERVE TRANSECTION: The optic nerve was transected unilaterally in 26 rats under intraperitoneal pentobarbital anesthesia. The conjunctiva was opened with scissors and the optic nerve exposed by traction on extraocular muscles. The transection was performed with microscissors 5 mm posterior to the globe, with specific attention to avoidance of injury to major ocular blood vessels. Immediately after transection, the retina was examined ophthalmoscopically to assure that the retinal arterial blood supply was not disrupted. The conjunctiva was closed with absorbable suture and the eye dressed with antibiotic ointment. Beginning on the day of transection, the rats were treated daily with intraperitoneal injections of either a vehicle (9 rats with 50 mM HEPES-buffered saline) or a NAALADase inhibitor (8 rats with 10 mg/kg of Compound A and 9 rats with 10 mg/kg of Compound B). 5 saline treated rats, 3 Compound A treated rats and 4 Compound B treated rats were sacrificed at 2 weeks, and the remaining rats at 4 weeks, after transection.
as §2, §3

BB/W rats = test: Retinal pathology in diabetic BB/W rats (basement membrane thickness, E/P ratio); format: in vivo, rat; settings: for BM THICKNESS (nm) ± SD (n = 3) / E/P RATIO (n = 8–10): diabetic rats
Procedure: Four (4) groups of rats received daily insulin injections to maintain their glucose levels at about 350 mg/dl. Starting at the onset of hyperglycemia, NAALADase inhibitor 2-(3-sulfanylpropyl)-pentanedioic acid was administered daily for 6 months to one group of BB/W rats at a dose of 10 mg/kg and to a second group of BB/W rats at a dose of 30 mg/kg. A third group of BB/W rats and a fourth group of non-diabetic rats received daily vehicle treatment (50 mM Hepes buffered saline).
After six (6) months of NAALADase inhibitor or vehicle treatment, the rats were sacrificed and their eyes were removed. From each rat, one eye was processed for elastase digest while the other eye was processed for transmission electron microscopy (TEM) and basement membrane (BM) thickness.
Retinal digests were prepared using elastase on retinas as described in Layer, N. , Invest Ophthalmol Vis Sci (1993) 34:2097. Eyes were removed from recently killed BB/W rats (n=25) and age-matched transgenic controls (n=10). The retinas (n=35) were fixed at room temperature by immersing the whole eye (slit at limbus) in 4% (w/v) paraformaldehyde in 50 mmol/L Na-K phosphate buffer with 8% sucrose. The fixed retinas were rinsed in deionized water and were incubated for 3 minutes in a 37° C. agitating water bath in 40 units/mL elastase in Na-K phosphate buffer with 150 mmol/L NaCl and 5 mmol/L ethylenediamine tetraacetic acid (EDTA), pH 6.5. The tissues were washed overnight in 100 mmol/L Tris-HCL (pH 8.5) and then transferred to deionized water for removal of the loosened vitreous and digested neural elements by gentle agitation using the sides of closed forceps and the sides and ends of very fine brushes. After all loose tissues were removed, the retinas were incubated once more in fresh enzyme for 3 minutes and then subjected to a second overnight wash at room temperature in Tns-HCl buffer. On the third day, the retinas were again transferred to deionized water for additional removal of digested neural elements. The vascular network that was completely free of nonvascular elements was mounted flat by flotation in Ca^2+ and Mg^2+ free Dulbecco's PBS on siliconized slides (#S1308, Oncor, Gaithersburg, Md.). After air drying in a dust free environment, the mounts of the retinal microvasculature were stained using periodic acid Schiff reaction and hematoxylin counterstaining, as described in Luna, L., ed. Manual of Histologic Staining Methods of the Armed Forces Institute of Pathology (1968) McGraw-Hill, New York, N.Y. The preparations were then examined by light microscopy and photographed.
The stained and intact retinal whole mounts were coded and subsequent counting was done masked, as described in Cuthbertson, R., Invest Ophthalmol Vis Sci. (1986) 27:1659-1664).
Ten fields at ×100 magnification were counted for endothelial and pericyte cells using previously described morphologic criteria (see Kuwabara, T., Arch Ophthalmol. (1960) 64:904-911). In every sample, at least 200 cells were counted from the mid zone of the retina. Mean values for endothelial cell/pericyte (E/P) ratios were initially calculated in 3 retinas from each of the four (4) groups of rats.
Each eye was fixed in 4% glutaraldehyde and dissected free of sclera and choroids, then trimmed and postfixed in 1% osmium tetroxide. After dehydration and embedding, thin sections were stained with uranyl acetate and lead citrate. Initially, EM thickness of retinal capillaries from 3 non-diabetic rats receiving vehicle, 3 diabetic animals receiving 10 mg/kg 2-(3-sulfanylpropyl)-pentanedioic acid, and 3 diabetic rats receiving 30 mg/kg 2-(3-sulfanylpropyl)-pentanedioic acid were compared with 3 diabetic rats receiving a vehicle. At least 10 capillaries per eye from the inner nuclear and plexiform layers were photographed at a magnification of 10,000×. Exact magnification was determined for each set of negatives with a 28,800 line/inch calibration grid. Negatives were enlarged 3×. […]

NAALADase = NAALADase (Rattus norvegicus, UniProt P70627); settings: NAAG as substrate of NAALADase; cited from earlier work
[3] = 2 weeks survival after transection
[4] = 4 weeks survival after transection
[5] = 10 mg/kg daily for 6 months, 10 mg/kg
[6] = 10 mg/kg daily for 6 months, listed as NAALADASE INHIBITOR, 10 mg/kg
[7] = 30 mg/kg daily for 6 months, 30 mg/kg
[8] = 30 mg/kg daily for 6 months, listed as NAAALADASE INHIBITOR, 30 mg/kg
[9] = high dose (30 mg/kg), six months, vs diabetic vehicle
[10] = low dose (10 mg/kg), six months, vs diabetic vehicle

Sequence of NAALADase (P70627 whole entry): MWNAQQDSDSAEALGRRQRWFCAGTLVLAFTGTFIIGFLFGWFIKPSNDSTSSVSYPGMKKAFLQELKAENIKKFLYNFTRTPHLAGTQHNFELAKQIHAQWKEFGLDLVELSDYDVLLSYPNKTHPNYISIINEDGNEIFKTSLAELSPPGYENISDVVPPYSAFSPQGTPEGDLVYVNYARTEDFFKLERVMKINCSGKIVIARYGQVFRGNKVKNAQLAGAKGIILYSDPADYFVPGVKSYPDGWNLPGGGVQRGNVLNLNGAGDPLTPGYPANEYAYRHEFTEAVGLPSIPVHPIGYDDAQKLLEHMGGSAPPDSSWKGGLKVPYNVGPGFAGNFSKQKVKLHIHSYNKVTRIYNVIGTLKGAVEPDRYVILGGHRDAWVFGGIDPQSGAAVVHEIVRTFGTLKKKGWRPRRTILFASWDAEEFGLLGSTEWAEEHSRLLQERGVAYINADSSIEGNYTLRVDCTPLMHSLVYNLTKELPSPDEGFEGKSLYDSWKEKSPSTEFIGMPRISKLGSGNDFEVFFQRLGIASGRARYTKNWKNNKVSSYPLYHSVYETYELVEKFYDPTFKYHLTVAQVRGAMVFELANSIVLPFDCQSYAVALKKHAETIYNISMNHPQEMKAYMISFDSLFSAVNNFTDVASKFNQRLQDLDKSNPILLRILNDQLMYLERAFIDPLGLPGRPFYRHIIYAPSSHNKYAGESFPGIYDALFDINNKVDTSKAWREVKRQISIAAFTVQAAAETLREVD

Structure (SMILES): O=C(O)CCC(CCCS)C(=O)O (stereo not drawn) [Compound B, 2-(3-sulfanylpropyl)pentanedioic acid]
- FIBER NUMBER ± SEM (male Brown Norway rats [1]; 8 week group): 80785 ± 2121
- PERCENT DIFFERENCE ± SEM (male Brown Norway rats [1]; 8 week group, fiber number glaucoma vs normal eye, positive = fewer fibers in glaucoma eye): −0.82 ± 2.97%
- IOP INTEGRAL DIFFERENCE ± SEM (male Brown Norway rats [1]; 8 week group, glaucoma eye vs normal eye): 116 ± 33.2 mm Hg—days
- FIBER NUMBER (male Brown Norway rats [1]; 12 week group): 90504 ± 1718
- PERCENT DIFFERENCE (male Brown Norway rats [1]; 12 week group, fiber number glaucoma vs normal eye): −3.21 ± 2.86%
- IOP INTEGRAL DIFFERENCE (male Brown Norway rats [1]; 12 week group, glaucoma eye vs normal eye): 109 ± 45.2 mm Hg—days
- remaining axons relative to the saline-treated rats (male Brown Norway rats [2]; 2 weeks after transection): twice
- FIBER NUMBER ± SEM (male Brown Norway rats [2]; [3]): 19,550 ± 5,091
- PERCENT DIFFERENCE ± SEM (male Brown Norway rats [2]; [3]): 75.3 ± 6.6%
- FIBER NUMBER ± SEM (male Brown Norway rats [2]; [4]): 5,162 ± 2,509
- PERCENT DIFFERENCE ± SEM (male Brown Norway rats [2]; [4]): 93.4 ± 3.1%
- BM THICKNESS (nm) ± SD (n = 3) (BB/W rats; [5]): 82.3±4.07 nm
- E/P RATIO (n = 8–10) (BB/W rats; [5]): 2.4±0.5
- BM THICKNESS (nm) ± SD (n = 3) (BB/W rats; [6]): 82.3 ± 4.07 nm
- E/P RATIO (n = 8–10) (BB/W rats; [6]): 2.4 ± 0.5
- BM THICKNESS (nm) ± SD (n = 3) (BB/W rats; [7]): 71.7±4.07 nm
- E/P RATIO (n = 8–10) (BB/W rats; [7]): 1.9±0.4
- BM THICKNESS (nm) ± SD (n = 3) (BB/W rats; [8]): 71.7 ± 4.07 nm
- E/P RATIO (n = 8–10) (BB/W rats; [8]): 1.9 ± 0.4
- reduction in BM thickness (BB/W rats; [9]): 29.0%
- reduction of E/P ratios (BB/W rats; [9]): 37%
- decrease in BM thickness (BB/W rats; [10]): 18.5%
- reduction of E/P ratios (BB/W rats; [10]): 20%

Structure (SMILES): CC(=O)N[C@@H](CC(=O)O)C(=O)N[C@@H](CCC(=O)O)C(=O)O [NAAG, N-acetyl-aspartyl-glutamate] (Ac-Asp-Glu-OH)
- Km (NAALADase): 0.54 µM
